The target in assay [1] is T1, GTP cyclohydrolase I (GTPCH) (Homo sapiens, UniProt P30793).
T1 sequence (P30793 1-250): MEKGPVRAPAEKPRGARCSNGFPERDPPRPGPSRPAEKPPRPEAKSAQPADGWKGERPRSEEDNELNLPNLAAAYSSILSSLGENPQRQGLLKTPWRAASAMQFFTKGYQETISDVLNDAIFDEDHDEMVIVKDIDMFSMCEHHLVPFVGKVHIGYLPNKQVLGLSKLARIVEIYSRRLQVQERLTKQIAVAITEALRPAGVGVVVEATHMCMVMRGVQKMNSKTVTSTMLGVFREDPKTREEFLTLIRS
Put plainly: Direct effect on catalysis of GTPCH. The assay is classed as biochemical. Conditions: not illustrated.

In the next assay the test system is IL-1β mRNA. Put plainly: Expression of IL-1β genes in LPS-stimulated BV-2 cells (RT-PCR). The assay is classed as cell-based, mouse. On the procedure:
RT-PCR for GTPCH, iNOS, TNF-α, IL-1β and COX-2
5 ? each of total RNA samples isolated from BV-2 cells were subjected to reverse-transcription (RT), and then polymerase chain reaction (PCR) for 30 cycles under the conditions of 94° C. for 30 seconds, 60° C. for 40 seconds and 72° C. for one minute. Primers used in the PCR were as follows: iNOS (forward, ATGTCCGAAG-CAAACATCAC; reverse, TAATGTC CAGGAAGTAGGTG), TNF-α (forward, CA-[…] reverse, CAGAGCAATGACTC-CAAAGTAGACCT), IL-1β (forward, […]; reverse, CAGGACAGGTAT AGATTCTTTCCTTT), COX-2 (forward, […]; reverse, […]), GTPCH (forward, GGATACCAGGAGACCAT CTCA; reverse, TAGCATGGTGC-TAGTGACAGT). RT-PCR for B2M was simultaneously performed as internal control. The PCR products were subjected to electrophoresis in a 1.5% agarose gel, thereby confirming the presence of a desired size of single band.
The assay was performed to investigate whether EHMTIQ (11a) affects IL-β production in an activated microglial cell. LPS-stimulated BV-2 cell smaples were treated with various concentrations of EHMTIQ (11a) and the expression of IL-1β genes was estimated by RT-PCR. The results are illustrated in FIG. 4.

In the case of `CCC(=O)N1CCc2cc(OC)c(O)cc2C1` [EHMTIQ (11a), 2-ethylcarbonyl-7-hydroxy-6-methoxy-1,2,3,4-tetrahydroisoquinoline], in assay [1], the “direct effect on catalysis of GTPCH” value is “did not directly relate to the catalysis of GTPCH”. The “mRNA level of IL-1β” value with IL-1β mRNA (2.5 (unit as image)) is given as 74±0.7%; in the assay with IL-1β mRNA (100 (unit as image)), “significant decrease in the LPS effect”.

The values above are taken from US20100217003A1, “1,2,3,4-TETRAHYDROISOQUINOLINE DERIVATIVES HAVING EFFECTS OF PREVENTING AND TREATING DEGENERATIVE AND INFLAMMATORY DISEASES” (priority 2006, published 2010).
